Results as given in patent US4248889A, “3,5-Dihydroxypentanoic ester derivatives having antihyperlipaemic activity” (Sankyo Company Limited, priority 1978, dated 1981).

Molecular target: cholesterol biosynthesis (crude enzyme extracted from rat liver)
Test: inhibition of cholesterol biosynthesis by crude enzyme extracted from rat liver (radioactive acetic acid, 37° C., 60 minutes; cholesterol precipitated with digitonin, radioactivity measured)
Type: biochemical
Description: Crude enzyme extracted from rat liver was reacted with radioactive acetic acid at 37° C. for 60 minutes. The radioactive cholesterol thus biosynthesized was saponified and precipitated with digitonin, and the radioactivity was measured to determine the amount of cholesterol produced. The reaction was repeated, by adding one of the compounds of the invention listed in the following Table at the beginning of the reaction, and the amount of cholesterol biosynthesized was again determined, to give a quantitative measurement of the inhibitory effect of the compounds of the invention. The concentrations (μg/ml) of the compounds of the invention and of a known compound (clofibrate) which gave approximately 50% inhibition of cholesterol biosynthesis re reported in the following Table as I50 values [see Bricker et al, The Journal of Biological Chemistry, 247, 4914 (1972)]. The compounds of the invention are identified in the following Table by the numbers heretofore assigned to them.

Structure (SMILES)	I50 (concentration which gave approximately 50% inhibition of cholesterol biosynthesis) [µg/mL]
CCOC(=O)C(C)(C)Oc1ccc(Cl)cc1 [Clofibrate, clofibrate, reference compound]	250 to 300
CCOC(=O)CC(O)CC(O)CCc1ccccc1 (centres unmarked) [Compound 1, Ethyl 3,5-dihydroxy-7-phenylheptanoate]	3.7
CCOC(=O)CC(O)CC(O)CCc1ccc(Cl)cc1 (centres unmarked) [Compound 2, Ethyl 7-p-chlorophenyl-3,5-dihydroxyheptanoate]	17.2
CCOC(=O)CC(O)CC(O)CCc1cccc2ccccc12 (centres unmarked) [Compound 3, Ethyl 3,5-dihydroxy-7-(1-naphthyl)heptanoate]	5.0
CCOC(=O)CC(O)CC(O)CCc1c(C)ccc2ccccc12 (centres unmarked) [Compound 4, Ethyl 3,5-dihydroxy-7-(2-methyl-1-naphthyl)heptanoate]	0.24
CCOC(=O)CC(O)CC(O)CCc1c(C)ccc2c1CCCC2 (centres unmarked) [Compound 5, Ethyl 3,5-dihydroxy-7-(2-methyl-5,6,7,8-tetrahydro-1-naphthyl)heptanoate]	1.56
CCOC(=O)CC(O)CC(O)CCCc1cccc2ccccc12 (centres unmarked) [Compound 6, Ethyl 3,5-dihydroxy-8-(1-naphthyl)octanoate]	3.4
CCOC(=O)CC(O)CC(O)CCCc1c(C)ccc2ccccc12 (centres unmarked) [Compound 7, Ethyl 3,5-dihydroxy-8-(2-methyl-1-naphthyl)octanoate]	1.2
CCOC(=O)CC(O)CC(O)C=Cc1ccccc1 (centres unmarked) [Compound 8, Ethyl 3,5-dihydroxy-7-phenylhept-6-enoate]	9.0
CCOC(=O)CC(O)CC(O)C(C)Oc1ccccc1 (centres unmarked) [Compound 9, Ethyl 3,5-dihydroxy-6-phenoxyheptanoate]	23 to 50
CCOC(=O)CC(O)CC(O)COc1ccccc1Cl (centres unmarked) [Compound 10, Ethyl 6-(o-chlorophenoxy)-3,5-dihydroxyhexanoate]	5 to 15.2
